Measurements taken from PubChem BioAssay AID248 (DTP/NCI, 2004).
Toxic doses and inconclusive results are not listed. Rule as the data show it: active = T/C of 150% or more; inactive = T/C below 125%.

Tested on: L1210 leukemia ip in BDF1 mice, survival T/C
Experiment: NCI In Vivo Anticancer Drug Screen. Data for tumor model L1210 Leukemia (intraperitoneal) in B6D2F1 (BDF1) mice
Settings: endpoint: mean survival time, higher = longer survival
Method in brief: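 Survival endpoint. Drug-treated group vs vehicle group, expressed as T divided by C. Tumor passaged by transplantation.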

[1] = dose: 12.5 mg/kg/injection, schedule: Q01DX009 (ip), vehicle: saline with Tween-80
[2] = dose: 25.0 mg/kg/injection, schedule: Q01DX009 (ip), vehicle: saline with Tween-80
[3] = dose: 100.0 mg/kg/injection, schedule: Q04DX003 (ip), vehicle: saline with Tween-80
[4] = dose: 100.0 mg/kg/injection, schedule: Q01DX001 (ip), vehicle: saline
[5] = dose: 200.0 mg/kg/injection, schedule: Q01DX001 (ip), vehicle: saline
[6] = dose: 400.0 mg/kg/injection, schedule: Q01DX001 (ip), vehicle: saline
[7] = dose: 200.0 mg/kg/injection, schedule: Q04DX002 (ip), vehicle: Klucel (hydroxypropylcellulose) (HPC)
[8] = dose: 100.0 mg/kg/injection, schedule: Q01DX009 (ip), vehicle: saline with Tween-80
[9] = dose: 200.0 mg/kg/injection, schedule: Q01DX009 (ip), vehicle: saline with Tween-80
[10] = dose: 400.0 mg/kg/injection, schedule: Q01DX009 (ip), vehicle: saline with Tween-80
[11] = dose: 100.0 mg/kg/injection, schedule: Q04DX003 (ip), vehicle: Klucel (hydroxypropylcellulose) (HPC)
[12] = dose: 200.0 mg/kg/injection, schedule: Q04DX003 (ip), vehicle: Klucel (hydroxypropylcellulose) (HPC)
[13] = dose: 400.0 mg/kg/injection, schedule: Q04DX003 (ip), vehicle: Klucel (hydroxypropylcellulose) (HPC)

Measured: T/C

COc1ccc(N=NN(C)C)cc1
inactive: dose: 6.25 mg/kg/injection, schedule: Q01DX009 (ip), vehicle: saline with Tween-80 98 % of control | [1] 100 % of control | dose: 12.5 mg/kg/injection, schedule: Q04DX003 (ip), vehicle: saline with Tween-80 107 % of control | dose: 18.75 mg/kg/injection, schedule: Q01DX001 (ip), vehicle: saline with Tween-80 107 % of control | [2] 100 % of control | dose: 25.0 mg/kg/injection, schedule: Q04DX003 (ip), vehicle: saline with Tween-80 108 % of control | dose: 37.5 mg/kg/injection, schedule: Q01DX001 (ip), vehicle: saline with Tween-80 108 % of control | dose: 50.0 mg/kg/injection, schedule: Q01DX009 (ip), vehicle: saline with Tween-80 104 % of control | dose: 50.0 mg/kg/injection, schedule: Q04DX003 (ip), vehicle: saline with Tween-80 115 % of control | [3] 108 % of control

O=C1C=CC(=O)N1CCc1ccccc1
inactive: dose: 3.0 mg/kg/injection, schedule: Q01DX009 (ip), vehicle: Klucel (hydroxypropylcellulose) (HPC) 106 % of control | dose: 5.0 mg/kg/injection, schedule: Q01DX009 (ip), vehicle: saline with Tween-80 91 % of control | dose: 6.0 mg/kg/injection, schedule: Q01DX009 (ip), vehicle: Klucel (hydroxypropylcellulose) (HPC) 95 % of control | dose: 10.0 mg/kg/injection, schedule: Q01DX009 (ip), vehicle: saline with Tween-80 87 % of control | dose: 12.0 mg/kg/injection, schedule: Q01DX009 (ip), vehicle: Klucel (hydroxypropylcellulose) (HPC) 103 % of control | dose: 12.5 mg/kg/injection, schedule: Q01DX009 (ip), vehicle: Klucel (hydroxypropylcellulose) (HPC) 97 % of control | dose: 20.0 mg/kg/injection, schedule: Q01DX009 (ip), vehicle: saline with Tween-80 101 % of control | dose: 20.0 mg/kg/injection, schedule: Q04DX003 (ip), vehicle: saline with Tween-80 95 % of control

C(=N\N1CCN(/N=C/c2ccc(-c3ccccc3)cc2)CC1)/c1ccc(-c2ccccc2)cc1
inactive: [4] 94 % of control | [5] 97 % of control | [6] 94 % of control

Clc1cc(/C=C/c2ccccc2)c2ccccc2n1
inactive: [4] 105 % of control | [5] 105 % of control | [6] 100 % of control

COc1ccc2c(CSc3ncnc4nc[nH]c34)cc(=O)oc2c1
inactive: [7] 94 % of control | dose: 400.0 mg/kg/injection, schedule: Q04DX002 (ip), vehicle: Klucel (hydroxypropylcellulose) (HPC) 94 % of control

Cc1cc(C)c(C)c(OCC(=O)O)c1
inactive: dose: 75.0 mg/kg/injection, schedule: Q01DX001 (ip), vehicle: other 97 % of control | dose: 150.0 mg/kg/injection, schedule: Q01DX001 (ip), vehicle: other 97 % of control | dose: 300.0 mg/kg/injection, schedule: Q01DX001 (ip), vehicle: other 95 % of control

COC(=O)C(Cc1c[nH]c2ccccc12)N(C)C (stereo unspecified)
inactive: dose: 100.0 mg/kg/injection, schedule: Q01DX001 (ip), vehicle: other 101 % of control | dose: 200.0 mg/kg/injection, schedule: Q01DX001 (ip), vehicle: other 103 % of control | dose: 400.0 mg/kg/injection, schedule: Q01DX001 (ip), vehicle: other 98 % of control

CCOc1ccc(C=C(C#N)C#N)cc1OCC
inactive: [4] 105 % of control | [5] 102 % of control | [6] 90 % of control

ClC(Cl)(Cl)c1cc(C(Cl)(Cl)Cl)nc(NCCCN2CCCC2)n1
inactive: [8] 99 % of control | [9] 96 % of control | [10] 95 % of control

CCC(=O)C(CCN(C)C)c1ccccn1 (stereo unspecified)
inactive: dose: 20.0 mg/kg/injection, schedule: Q01DX Z (ip), vehicle: saline 103 % of control | dose: 30.0 mg/kg/injection, schedule: Q01DX Z (ip), vehicle: saline 91 % of control | dose: 44.0 mg/kg/injection, schedule: Q01DX Z (ip), vehicle: saline 91 % of control | dose: 66.0 mg/kg/injection, schedule: Q01DX Z (ip), vehicle: saline 93 % of control

CNC(=O)NCc1ccc(Cl)cc1
inactive: [3] 105 % of control | dose: 200.0 mg/kg/injection, schedule: Q04DX003 (ip), vehicle: saline with Tween-80 98 % of control | dose: 400.0 mg/kg/injection, schedule: Q04DX003 (ip), vehicle: saline with Tween-80 107 % of control

Cc1ncc(CO)c(C2NOCc3ncsc32)c1O (stereo unspecified)
inactive: dose: 6.25 mg/kg/injection, schedule: Q01DX009 (ip), vehicle: saline 89 % of control | dose: 6.25 mg/kg/injection, schedule: Q04DX003 (ip), vehicle: saline 102 % of control | dose: 12.5 mg/kg/injection, schedule: Q01DX001 (ip), vehicle: saline 101 % of control | dose: 12.5 mg/kg/injection, schedule: Q01DX009 (ip), vehicle: saline 97 % of control | dose: 12.5 mg/kg/injection, schedule: Q04DX003 (ip), vehicle: saline 106 % of control | dose: 25.0 mg/kg/injection, schedule: Q01DX001 (ip), vehicle: saline 102 % of control | dose: 25.0 mg/kg/injection, schedule: Q04DX003 (ip), vehicle: saline 93 % of control

CC1C2CCC(C2)C(C)C1Br (stereo unspecified)
inactive: dose: 100.0 mg/kg/injection, schedule: Q01DX009 (ip), vehicle: other 99 % of control | dose: 100.0 mg/kg/injection, schedule: Q04DX003 (ip), vehicle: other 102 % of control | dose: 200.0 mg/kg/injection, schedule: Q01DX009 (ip), vehicle: other 96 % of control | dose: 200.0 mg/kg/injection, schedule: Q04DX003 (ip), vehicle: other 102 % of control | dose: 400.0 mg/kg/injection, schedule: Q01DX009 (ip), vehicle: other 96 % of control | dose: 400.0 mg/kg/injection, schedule: Q04DX003 (ip), vehicle: other 109 % of control

c1ccc(CCc2ccccc2)cc1
inactive: [8] 91 % of control | dose: 100.0 mg/kg/injection, schedule: Q04DX002 (ip), vehicle: saline with Tween-80 95 % of control | [9] 91 % of control | dose: 200.0 mg/kg/injection, schedule: Q04DX002 (ip), vehicle: saline with Tween-80 98 % of control | [10] 94 % of control | dose: 400.0 mg/kg/injection, schedule: Q04DX002 (ip), vehicle: saline with Tween-80 98 % of control

CCOC(=O)c1[nH]c2ccsc2c1CN(C)C
inactive: [11] 102 % of control | [12] 91 % of control | [13] 97 % of control

CC(C)(C)Sc1ccncc1
inactive: [8] 98 % of control | [9] 88 % of control

S=c1n(CN2CCCCC2)c2cncnc2n1CN1CCCCC1
inactive: dose: 75.0 mg/kg/injection, schedule: Q01DX Z (ip), vehicle: carboxymethylcellulose (CMC) 98 % of control | dose: 100.0 mg/kg/injection, schedule: Q01DX Z (ip), vehicle: carboxymethylcellulose (CMC) 109 % of control | dose: 125.0 mg/kg/injection, schedule: Q01DX Z (ip), vehicle: carboxymethylcellulose (CMC) 95 % of control

CC(=O)SC(C)CC(=O)O (stereo unspecified)
inactive: dose: 100.0 mg/kg/injection, schedule: Q04DX003 (ip), vehicle: saline 106 % of control | dose: 200.0 mg/kg/injection, schedule: Q04DX003 (ip), vehicle: saline 101 % of control

CC(C)(CCl)c1ccc(C(C)(C)CCl)cc1
inactive: dose: 50.0 mg/kg/injection, schedule: Q04DX002 (ip), vehicle: Klucel (hydroxypropylcellulose) (HPC) 104 % of control | dose: 100.0 mg/kg/injection, schedule: Q04DX002 (ip), vehicle: Klucel (hydroxypropylcellulose) (HPC) 93 % of control | [7] 93 % of control

c1ccc2c(CC3=NCCN3)cccc2c1
inactive: [1] 96 % of control | [2] 103 % of control

COc1ccc(OC)c(CCCC(=O)O)c1
inactive: dose: 50.0 mg/kg/injection, schedule: Q01DX001 (ip), vehicle: carboxymethylcellulose (CMC) 108 % of control | dose: 100.0 mg/kg/injection, schedule: Q01DX001 (ip), vehicle: carboxymethylcellulose (CMC) 104 % of control | dose: 200.0 mg/kg/injection, schedule: Q01DX001 (ip), vehicle: carboxymethylcellulose (CMC) 104 % of control | dose: 400.0 mg/kg/injection, schedule: Q01DX001 (ip), vehicle: carboxymethylcellulose (CMC) 102 % of control

CC(=O)NC(C)CCC(C)C (stereo unspecified)
inactive: [11] 101 % of control | [12] 100 % of control | [13] 101 % of control
